Measured values from PubChem BioAssay AID328 (DTP/NCI, 2004).
Inconclusive results and toxic doses are left out.

System: BDF1 mice, P388 leukemia ip, median survival T/C
Assay: NCI In Vivo Anticancer Drug Screen. Data for tumor model P388 Leukemia (intraperitoneal) in B6D2F1 (BDF1) mice
Conditions: endpoint: median survival time, higher = longer survival
Method in brief: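 In tumour-bearing mice, survival after compound treatment is set against the vehicle group and given as a quotient.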

[1] = dose: 25.0 mg/kg/injection, schedule: Q01DX009 (ip), vehicle: Klucel (hydroxypropylcellulose) (HPC)
[2] = dose: 50.0 mg/kg/injection, schedule: Q01DX009 (ip), vehicle: Klucel (hydroxypropylcellulose) (HPC)
[3] = dose: 100.0 mg/kg/injection, schedule: Q01DX009 (ip), vehicle: Klucel (hydroxypropylcellulose) (HPC)
[4] = dose: 50.0 mg/kg/injection, schedule: Q01DX009 (ip), vehicle: saline with Tween-80
[5] = dose: 100.0 mg/kg/injection, schedule: Q01DX009 (ip), vehicle: saline with Tween-80
[6] = dose: 200.0 mg/kg/injection, schedule: Q01DX009 (ip), vehicle: saline with Tween-80

## O=C(Nc1nncs1)c1cccs1
dose: 50.0 mg/kg/injection, schedule: Q04DX002 (ip), vehicle: saline with Tween-80
  T/C: 109 % of control
dose: 100.0 mg/kg/injection, schedule: Q04DX002 (ip), vehicle: saline with Tween-80
  T/C: 93 % of control
dose: 600.0 mg/kg/injection, schedule: Q04DX002 (ip), vehicle: saline with Tween-80
  T/C: 190 % of control

## CC(C)(C)COC(=O)CCN1CC1
dose: 2.5 mg/kg/injection, schedule: Q01DX009 (ip), vehicle: Klucel (hydroxypropylcellulose) (HPC)
  T/C: 116 % of control
dose: 5.0 mg/kg/injection, schedule: Q01DX009 (ip), vehicle: Klucel (hydroxypropylcellulose) (HPC)
  T/C: 111 % of control
dose: 10.0 mg/kg/injection, schedule: Q01DX009 (ip), vehicle: Klucel (hydroxypropylcellulose) (HPC)
  T/C: 122 % of control
dose: 20.0 mg/kg/injection, schedule: Q01DX009 (ip), vehicle: Klucel (hydroxypropylcellulose) (HPC)
  T/C: 100 % of control
dose: 20.0 mg/kg/injection, schedule: Q04DX003 (ip), vehicle: Klucel (hydroxypropylcellulose) (HPC)
  T/C: 95 % of control
dose: 40.0 mg/kg/injection, schedule: Q04DX003 (ip), vehicle: Klucel (hydroxypropylcellulose) (HPC)
  T/C: 100 % of control
dose: 80.0 mg/kg/injection, schedule: Q04DX003 (ip), vehicle: Klucel (hydroxypropylcellulose) (HPC)
  T/C: 109 % of control

## CSc1cccc(NC(=O)Oc2ccc([N+](=O)[O-])cc2Cl)c1
dose: 12.5 mg/kg/injection, schedule: Q01DX009 (ip), vehicle: DMSO
  T/C: 93 % of control
dose: 50.0 mg/kg/injection, schedule: Q01DX009 (ip), vehicle: DMSO
  T/C: 89 % of control

## O=C(O)CNC(=O)CCl
[1]
  T/C: 110 % of control
[2]
  T/C: 120 % of control
[3]
  T/C: 120 % of control
dose: 225.0 mg/kg/injection, schedule: Q01DX009 (ip), vehicle: Klucel (hydroxypropylcellulose) (HPC)
  T/C: 86 % of control

## COc1cccc(CCC(=O)O)c1OC
dose: 25.0 mg/kg/injection, schedule: Q04DX003 (ip), vehicle: water
  T/C: 109 % of control
dose: 50.0 mg/kg/injection, schedule: Q04DX003 (ip), vehicle: water
  T/C: 101 % of control
dose: 100.0 mg/kg/injection, schedule: Q04DX003 (ip), vehicle: water
  T/C: 111 % of control
dose: 200.0 mg/kg/injection, schedule: Q04DX003 (ip), vehicle: water
  T/C: 103 % of control
dose: 400.0 mg/kg/injection, schedule: Q04DX003 (ip), vehicle: water
  T/C: 94 % of control

## CCc1c2cc(OC)c(OC)cc2cc2c3cc(OC)c(OC)cc3cc[n+]12 (tested in a mixture with another compound)
dose: 50.0 mg/kg/injection, schedule: Q04DX003 (ip), vehicle: saline
  T/C: 150 % of control
dose: 75.0 mg/kg/injection, schedule: Q04DX003 (ip), vehicle: saline
  T/C: 150 % of control
dose: 100.0 mg/kg/injection, schedule: Q04DX003 (ip), vehicle: saline
  T/C: 166 % of control
dose: 150.0 mg/kg/injection, schedule: Q04DX003 (ip), vehicle: saline
  T/C: 158 % of control

## CN(C1=NS(=O)(=O)N=C(N(C)c2ccccc2)O1)c1ccccc1
[1]
  T/C: 122 % of control
[2]
  T/C: 102 % of control
[4]
  T/C: 89 % of control
[3]
  T/C: 115 % of control
[5]
  T/C: 99 % of control
dose: 200.0 mg/kg/injection, schedule: Q01DX009 (ip), vehicle: Klucel (hydroxypropylcellulose) (HPC)
  T/C: 105 % of control

## O=S(=O)(OCCCl)C(F)(F)F
dose: 1.56 mg/kg/injection, schedule: Q01DX009 (ip), vehicle: saline with Tween-80
  T/C: 119 % of control
dose: 3.12 mg/kg/injection, schedule: Q01DX009 (ip), vehicle: saline with Tween-80
  T/C: 107 % of control
dose: 6.25 mg/kg/injection, schedule: Q01DX009 (ip), vehicle: saline with Tween-80
  T/C: 120 % of control

## CCOC(=O)CC1=NN(C(=O)c2ccccc2)C(=NC(=O)c2ccccc2)SC1
[4]
  T/C: 99 % of control
[5]
  T/C: 101 % of control
[6]
  T/C: 90 % of control

## O=C/C=C/Nc1ccccc1
[5]
  T/C: 122 % of control
[6]
  T/C: 109 % of control
dose: 400.0 mg/kg/injection, schedule: Q01DX009 (ip), vehicle: saline with Tween-80
  T/C: 90 % of control

## CC1=C(/C=C/C(C)=C/C=C/C(C)=C/CO)C(C)(C)CCC1
[4]
  T/C: 92 % of control
[5]
  T/C: 96 % of control
[6]
  T/C: 96 % of control

## C[N+](C)(C)CCOC(=O)/C=C/c1cnc[nH]1
dose: 5.0 mg/kg/injection, schedule: Q01DX009 (ip), vehicle: saline
  T/C: 97 % of control
dose: 10.0 mg/kg/injection, schedule: Q01DX009 (ip), vehicle: saline
  T/C: 95 % of control
dose: 20.0 mg/kg/injection, schedule: Q01DX009 (ip), vehicle: saline
  T/C: 117 % of control

## COC(=O)c1cc(=O)n(-c2ccccc2F)c(SC)n1
dose: 100.0 mg/kg/injection, schedule: Q04DX003 (ip), vehicle: Klucel (hydroxypropylcellulose) (HPC)
  T/C: 116 % of control

## O=C(OCC(OC(=O)c1ccccc1)C(OC(=O)c1ccccc1)C(OC(=O)c1ccccc1)C(COC(=O)c1ccccc1)OC(=O)c1ccccc1)c1ccccc1 (stereo not given)
dose: 6.25 mg/kg/injection, schedule: Q04DX003 (ip), vehicle: saline with Tween-80
  T/C: 97 % of control
dose: 12.5 mg/kg/injection, schedule: Q04DX003 (ip), vehicle: saline with Tween-80
  T/C: 92 % of control
dose: 25.0 mg/kg/injection, schedule: Q04DX003 (ip), vehicle: saline with Tween-80
  T/C: 97 % of control
dose: 50.0 mg/kg/injection, schedule: Q04DX003 (ip), vehicle: saline with Tween-80
  T/C: 87 % of control

## C[N+](C)(Cn1ncc2ccc([N+](=O)[O-])cc21)Cn1ncc2ccc([N+](=O)[O-])cc21
dose: 100.0 mg/kg/injection, schedule: Q04DX003 (ip), vehicle: saline with Tween-80
  T/C: 106 % of control

## CN(C)C(=O)c1cccc(COc2ccc(N3C(N)=NC(N)=NC3(C)C)cc2Cl)c1
dose: 4.0 mg/kg/injection, schedule: Q03HX024 (ip), vehicle: saline
  T/C: 100 % of control
dose: 8.0 mg/kg/injection, schedule: Q03HX016 (ip), vehicle: saline
  T/C: 100 % of control
dose: 16.0 mg/kg/injection, schedule: Q01DX009 (ip), vehicle: saline
  T/C: 90 % of control
dose: 16.0 mg/kg/injection, schedule: Q01DX009 (sc), vehicle: saline
  T/C: 100 % of control
dose: 16.0 mg/kg/injection, schedule: Q03HX016 (ip), vehicle: saline
  T/C: 100 % of control
dose: 16.0 mg/kg/injection, schedule: Q03HX024 (ip), vehicle: saline
  T/C: 118 % of control
dose: 32.0 mg/kg/injection, schedule: Q01DX009 (ip), vehicle: saline
  T/C: 118 % of control
dose: 32.0 mg/kg/injection, schedule: Q01DX009 (sc), vehicle: saline
  T/C: 90 % of control
dose: 32.0 mg/kg/injection, schedule: Q03HX016 (ip), vehicle: saline
  T/C: 118 % of control
dose: 32.0 mg/kg/injection, schedule: Q04DX003 (ip), vehicle: saline
  T/C: 100 % of control
dose: 64.0 mg/kg/injection, schedule: Q01DX001 (ip), vehicle: saline
  T/C: 100 % of control
dose: 64.0 mg/kg/injection, schedule: Q01DX001 (sc), vehicle: saline
  T/C: 90 % of control
dose: 64.0 mg/kg/injection, schedule: Q01DX009 (oral), vehicle: saline
  T/C: 90 % of control
dose: 64.0 mg/kg/injection, schedule: Q04DX003 (ip), vehicle: saline
  T/C: 100 % of control
dose: 64.0 mg/kg/injection, schedule: Q08DX002 (ip), vehicle: saline
  T/C: 100 % of control
dose: 128.0 mg/kg/injection, schedule: Q01DX001 (oral), vehicle: saline
  T/C: 90 % of control
dose: 128.0 mg/kg/injection, schedule: Q01DX001 (sc), vehicle: saline
  T/C: 100 % of control
dose: 128.0 mg/kg/injection, schedule: Q01DX009 (oral), vehicle: saline
  T/C: 95 % of control
dose: 256.0 mg/kg/injection, schedule: Q01DX001 (oral), vehicle: saline
  T/C: 95 % of control
dose: 256.0 mg/kg/injection, schedule: Q01DX001 (sc), vehicle: saline
  T/C: 90 % of control
dose: 512.0 mg/kg/injection, schedule: Q01DX001 (oral), vehicle: saline
  T/C: 90 % of control
dose: 512.0 mg/kg/injection, schedule: Q01DX001 (sc), vehicle: saline
  T/C: 100 % of control
dose: 1024.0 mg/kg/injection, schedule: Q01DX001 (oral), vehicle: saline
  T/C: 95 % of control

## C=CCOP(=O)(OCC=C)OCC=C
[1]
  T/C: 100 % of control
[2]
  T/C: 104 % of control
[3]
  T/C: 104 % of control

## CCN(/C=C/C=C(C#N)C#N)CC
[4]
  T/C: 109 % of control
[5]
  T/C: 88 % of control
